{
  "source": "patent US20150110725A1",
  "about": "“MIXTURE FOR THE INHIBITION OF MELANIN BIOSYNTHESIS” (GENERAL TOPICS S.R.L., priority 2012, published 2015)",
  "system": "murine melanoma named B16",
  "experiment": "Inhibition of melanin biosynthesis in secondary cultures of murine melanoma B16, 72 hours of exposure",
  "type": "cell-based",
  "protocol": "In order to evaluate the inhibition of melanin biosynthesis by the present mixture, an in vitro experimental model was used which consists of secondary cultures of a murine melanoma named B16. This strain is composed of cells with fibroblastoid morphology which produce melanin (Source: European Collection of Cell Cultures, ECACC).\nFor the tests, powders of the active ingredients were dissolved in ethanol and propylene glycol (1:1) at 10% (w/w) followed by dilution in culture medium DMEM high glucose+10% FBS supplemented with antibiotics (Penicillin 2000 IU/ml, Streptomycin 1000 IU/ml, Gentamicin 10 mg/ml) to final concentrations of: • A) 4-(1-phenylethyl)-1,3-benzenediol: 10 μg/ml; • B) Acetylglucosamine: 25 μg/ml, 50 μg/ml, 75 μg/ml; • C) Ethyl linoleate: 50 μg/ml; • D) 4-(1-phenylethyl)-1,3-benzenediol at concentration of 10 μg/ml and acetylglucosamine at concentration of 75 μg/ml; • E) 4-(1-phenylethyl)-1,3-benzenediol at a concentration of 10 μg/ml, acetylglucosamine at a concentration of 75 μg/ml, and ethyl linoleate at a concentration of 75 μg/ml. • F) hydroquinone at a concentration of 5 μg/ml (non-cytotoxic concentration)\nAt passage 30 the afore said cells were seeded on 6-well plates for 24 hours at a concentration of 80,000 cells per well. Then, fresh culture medium containing the afore said samples was added. Untreated cells were used as a negative control, whereas cells treated with hydroquinone at a non-cytotoxic concentration of 5 μg/ml were used as a positive control, as indicated above at point F).\nEach sample was tested in duplicate.\nAfter 72 hours of exposure, melanin and intracellular proteins were dosed.\nCells were washed once with phosphate buffered saline (PBS) and then lysed with NaOH 0.1N. The lysate was heated at 60° C. for 1 hour to allow melanin to be solubilized.\nIn order to evaluate the amount of melanin in the cell lysate, a spectrophotometric reading was taken at a wavelength of 405 nm with the use of a colorimeter (Tecan Sunrise Remote Model) equipped with a plate reader.\nA standard curve for melanin titrated from 15 to 500 μg/ml was prepared.\nThe protein dosage was carried out according to the Bradford's method (Bradford M., […]). […]\nThe reading was taken at 595 nm with a colorimeter (Tecan, Sunrise) equipped with a plate reader.\nIn order to quantify protein and melanin contents, a standard calibration curve for albumin and melanin was constructed, and their concentrations in the samples were calculated by using the curve fit formula and the corresponding absorbances.\nThen, averages of individual data were calculated and, for each sample, the percentage reduction of melanin was calculated compared to the negative control: […]",
  "data": [
    {"smiles": "CC(=O)N[C@@H]1[C@@H](O)[C@H](O)[C@@H](CO)O[C@@H]1O", "note": "[acetylglucosamine]", "values": [
      {"measurement": "average reduction in melanin biosynthesis", "setting": "acetylglucosamine alone, average over 25 μg/ml, 50 μg/ml and 75 μg/ml, B16 cells, 72 h", "value": 8, "unit": "%"}
    ]},
    {"smiles": "Oc1ccc(O)cc1", "note": "[hydroquinone]", "values": [
      {"measurement": "inhibition at 5 µg/mL", "setting": "Mus musculus, hydroquinone at non-cytotoxic concentration (5 μg/ml), positive control, B16 cells, 72 h, read-out: ability to inhibit melanin biosynthesis", "value": "~40", "unit": "%"}
    ]},
    {"smiles": "CC(c1ccccc1)c1ccc(O)cc1O", "note": "(stereo not shown) [4-(1-phenylethyl)-1,3-benzenediol]", "values": [
      {"measurement": "percentage reduction in melanin biosynthesis", "setting": "10 μg/ml, B16 cells, 72 h", "value": "about 50%"}
    ]},
    {"smiles": "CCCCC/C=C\\C/C=C\\CCCCCCCC(=O)OCC", "note": "[ethyl linoleate]", "values": [
      {"measurement": "ability to inhibit melanin synthesis when used individually", "setting": "ethyl linoleate alone (50 μg/ml), compared with the mixture containing it", "value": "significantly lower than that of the present mixture"}
    ]}
  ]
}
